Measurements: US20260015342A1, “HERBICIDAL PYRIMIDINONE DERIVATIVES” (SYNGENTA CROP PROTECTION AG, priority 2022, published 2026)

Key:
Type in all cases: in vivo
Conditions in all cases: 250 g/ha, evaluated after 13 days
AMAPA [1] = assay: Pre-emergence biological efficacy, glasshouse
Method: (§1) Seeds of weeds and/or crops were sown in standard soil in pots. After cultivation for one day under controlled conditions in a glasshouse (at 24/19° C., day/night; 16 hours light), the plants were sprayed with an aqueous spray solution derived from the formulation of the technical active ingredient in a small amount of acetone and a special solvent and emulsifier mixture referred to as IF50 (11.12% Emulsogen EL360 TM+44.44% N-methylpyrrolidone+44.44% Dowanol DPM glycol ether), to create a 50 g/I solution which was then diluted using 0.2% Genapol X080 as diluent to give the desired final dose of test compound.
(§2) The test plants were then grown under controlled conditions in the glasshouse (at 24/18° C., day/night; […]; 50% humidity) and watered twice daily. After 13 days the test was evaluated (100=total damage to plant; 0=no damage to plant).

ECHCG [2] = assay: Pre-emergence biological efficacy, glasshouse
Method: as §1, §2

EPHHL [3] = assay: Pre-emergence biological efficacy, glasshouse
Method: as §1, §2

IPOHE [4] = assay: Pre-emergence biological efficacy, glasshouse
Method: as §1, §2

LOLPE [5] = assay: Pre-emergence biological efficacy, glasshouse
Method: as §1, §2

SETFA [6] = assay: Pre-emergence biological efficacy, glasshouse
Method: as §1, §2

AMAPA [7] = assay: Post-emergence biological efficacy, glasshouse
Method: as §1, with “14 days” for “one day”
(§3) The test plants were then grown under controlled conditions in the glasshouse (at 24/18° C., day/night; 15 hours light; 50% humidity) and watered twice daily. After 13 days the test was evaluated (100=total damage to plant; 0=no damage to plant).

CHEAL = assay: Post-emergence biological efficacy, glasshouse
Method: as §1, with “14 days” for “one day”
as §3

DIGSA = assay: Post-emergence biological efficacy, glasshouse
Method: as §1, with “14 days” for “one day”
as §3

ECHCG [8] = assay: Post-emergence biological efficacy, glasshouse
Method: as §1, with “14 days” for “one day”
as §3

ELEIN = assay: Post-emergence biological efficacy, glasshouse
Method: as §1, with “14 days” for “one day”
as §3

EPHHL [9] = assay: Post-emergence biological efficacy, glasshouse
Method: as §1, with “14 days” for “one day”
as §3

IPOHE [10] = assay: Post-emergence biological efficacy, glasshouse
Method: as §1, with “14 days” for “one day”
as §3

LOLPE [11] = assay: Post-emergence biological efficacy, glasshouse
Method: as §1, with “14 days” for “one day”
as §3

SETFA [12] = assay: Post-emergence biological efficacy, glasshouse
Method: as §1, with “14 days” for “one day”
as §3

SMILES	damage to plant (100=total damage to plant; 0=no damage to plant), AMAPA (AMAPA [1])	damage to plant (100=total damage to plant; 0=no damage to plant), ECHCG (ECHCG [2])	damage to plant (100=total damage to plant; 0=no damage to plant), EPHHL (EPHHL [3])	damage to plant (100=total damage to plant; 0=no damage to plant), IPOHE (IPOHE [4])	damage to plant (100=total damage to plant; 0=no damage to plant), LOLPE (LOLPE [5])	damage to plant (100=total damage to plant; 0=no damage to plant), SETFA (SETFA [6])	damage to plant (100=total damage to plant; 0=no damage to plant), AMAPA (AMAPA [7])	damage to plant (100=total damage to plant; 0=no damage to plant), CHEAL (CHEAL)	damage to plant (100=total damage to plant; 0=no damage to plant), DIGSA (DIGSA)	damage to plant (100=total damage to plant; 0=no damage to plant), ECHCG (ECHCG [8])	damage to plant (100=total damage to plant; 0=no damage to plant), ELEIN (ELEIN)	damage to plant (100=total damage to plant; 0=no damage to plant), EPHHL (EPHHL [9])	damage to plant (100=total damage to plant; 0=no damage to plant), IPOHE (IPOHE [10])	damage to plant (100=total damage to plant; 0=no damage to plant), LOLPE (LOLPE [11])	damage to plant (100=total damage to plant; 0=no damage to plant), SETFA (SETFA [12])
CCOC(=O)C1(C)CC(c2cc(-n3c(OC)nc(C(F)(F)F)cc3=O)c(F)cc2Cl)=NO1 (racemic) [Compound 11, Ethyl 3-[2-chloro-4-fluoro-5-[2-methoxy-6-oxo-4-(trifluoromethyl)pyrimidin-1-yl]phenyl]-5-methyl-4H-isoxazole-5-carboxylate]	100	100	100	80	80	100	100	100	100	100	100	100	100	100	100
CCOC(=O)[C@@]1(C)CC(c2cc(-n3c(OC)nc(C(F)(F)F)cc3=O)c(F)cc2Cl)=NO1 [11 (R-enantiomer), Ethyl (5R)-3-[2-chloro-4-fluoro-5-[2-methoxy-6-oxo-4-(trifluoromethyl)pyrimidin-1-yl]phenyl]-5-methyl-4H-isoxazole-5-carboxylate]	10	90	50	70	10	90	100	100	100	100	100	90	100	100	80
CCOC(=O)[C@]1(C)CC(c2cc(-n3c(OC)nc(C(F)(F)F)cc3=O)c(F)cc2Cl)=NO1 [11 (S-enantiomer), ethyl (5S)-3-[2-chloro-4-fluoro-5-[2-methoxy-6-oxo-4-(trifluoromethyl)pyrimidin-1-yl]phenyl]-5-methyl-4H-isoxazole-5-carboxylate]	100	100	90	80	40	100	100	100	100	100	100	100	100	100	100
